# Assay results published in article PMC10605010, “Immunotechniques for the Group Determination of Macrolide Antibiotics Traces in the Environment Using a Volume-Mediated Sensitivity Enhancement Strategy” (Biosensors, 2023).
# How the values were obtained:
# [1] = tested on: coated anti-BSA-cmoCLA(ae) antibody; assay: Direct competitive antibody-coated ELISA (dcELISA) with HRP-aecAZI tracer; format: binding, rabbit; conditions: 1 h
# Description: (§1) To implement these assay formats, the IgG fraction was first isolated from antiserum via the double precipitation method using caprylic acid and ammonium sulfate, described in detail in [22]. The principle of the assays is based on competition between analyte and enzyme-labeled antigen (HRP-aecAZI) for binding to an antibody coated on the plate (dcELISA) or coupled covalently to Sepharose beads. The latter immunosorbent was used in the immunobeads assay (IBA) and immunofiltration assay (IFA).
# dcELISA plate format. The direct competitive antibody-coated ELISA format was carried out in accordance with the generally accepted procedure. The antibody coated on polystyrene plates could capture the free analyte from the tested sample and enzyme-labeled hapten in a competitive manner. The sequence of manipulations corresponded to those described for a similar format earlier. The role of the volume ratios between the standard (25–275 µL) and HRP-aecAZI (25–175 µL) on the sensitivity of the assay was studied in this work.
# As a result of interactions between antibody and a number of coating antigens, we have identified a preferred hapten and a rational antigen design for the most sensitive and broad-specific detection. Since the aecAZI hapten conjugated to the carrier via a zero-length arm yielded the desired assay performance, we prepared the same design enzyme-labeled hapten for the direct competitive assay format. […] Thus, a direct competitive assay format was optimized and established based on coated anti-BSA-cmoCLA(ae) antibody and HRP-aecAZI × 3 as a tracer.
# [2] = tested on: Anti-CLA(IgG) coupled to Sepharose beads; assay: Immunobead assay (IBA); format: binding, rabbit; conditions: 2 h
# Description: (§2) Sepharose 4B or Sepharose-CL-2B (Pharmacia, Uppsala, Sweden) were washed with water on a porous glass filter and then squeezed out with a soft press from excess moisture. The washed beads (2 g) were placed in a vial with sodium periodate solution (60 mg in 5 mL H2O) and mixed with a rotary mixer (ELMI Ltd. laboratory equipment, Riga, Latvia) for 45 min. An additional 30 min rotation continued after the addition of ethylene glycol (250 µL). The beads were then washed with water and finally with CBB (pH 9.6) squeezed mildly out. Each of the activated sorbents was placed in a vial for mixing with anti-cmoCLA IgG (10 mg) in 2 mL CBB (pH 9.6) for 48 h at 4 °C. The excess antibody was squeezed out. The beads were then washed with water and placed in a sodium borohydride solution (4 mg/4 mL) for 1 h with occasional shaking. After the final washing with water and PSBT, the resulting immune sorbents were stored at 4 °C in 10 mL of PSBT preserved with Merthiolate (1 mg).
# as §1
# Immunobead assay (IBA). Standard solution of analyte or tested sample in 1–2 mL PBST were accomplished with HRP-aecAZI and immunosorbents Anti-CLA(IgG)-S4B or Anti-CLA(IgG)-SCL2B taken in optimized concentration/volume and incubated for 0.5–3 h periods at a rotary mixer mixing (15 rpm). The beads were then pelleted using centrifugation (5 min, 3400× g) and suspended to the original volume with PBST. After three washing cycles, the bead pellet was suspended with TMB-substrate mixture (200 μL), and 8 M sulfuric acid (50 μL) was added 30 min later to terminate enzymatic reaction. The intensity of the colored product was measured using a plate reader at 450 nm.
# [3] = tested on: antibody to immunogen BSA-cmoERY(ma); conditions: milk; ERY = 100; cited from earlier work
# [4] = tested on: Anti-CLA(IgG) coupled to Sepharose beads; assay: Immunofiltration assay (IFA); format: binding, rabbit; conditions: overnight, Ab volume 50 µL, standard/sample 10,000 µL
# Description: as §2, §1
# Immunofiltration assay (IFA). The IFA principle consisted of passing a mixture of standard/sample (10 mL) and HRP-aecAZI through the beads with immobilized antibodies (Anti-CLA(IgG)-S4B or Anti-CLA(IgG)-SCL2B) placed in a homemade column and recording the enzymatic activity of the captured HRP-aecAZI. Briefly, the optimal volume of the prepared immunosorbent was placed on a pre-moistened filter support in a 10 μL filtered micropipette tip, which was then accurately attached to a syringe. This homemade column was filled with 10 mL of the standard analyte or water sample, avoiding the formation of bubbles. […]
# [5] = tested on: antibody, immunogen Commercial; parameters: method as in PMID 26497839; conditions: milk; cited from earlier work
# [6] = tested on: anti-BSA-cmoCLA(ae) antibodies; parameters: method as in PMID 25256165; conditions: coating antigen GEL-cmoCLA(ae), homologous; cited from earlier work
# [7] = tested on: antibody to immunogen BSA-cmoCLA(ae); parameters: method as in doi:10.1039/C9QM00429G; conditions: milk; CLA = 100; cited from earlier work
# [8] = coating Ab 100 µL, standard/sample 25 µL
# [9] = coating Ab 100 µL, standard/sample 50 µL
# [10] = coating Ab 100 µL, standard/sample 100 µL
# [11] = coating Ab 100 µL, standard/sample 200 µL
# [12] = coating Ab 100 µL, standard/sample 275 µL
# [13] = coating Ab 200 µL, standard/sample 275 µL
# [14] = coating Ab 300 µL, standard/sample 275 µL
# [15] = Ab volume 10 µL, standard/sample 1000 µL
# [16] = Ab volume 20 µL, standard/sample 2000 µL
smiles,measurement,setting,value
"CC[C@H]1OC(=O)[C@H](C)[C@@H](O[C@H]2C[C@@](C)(OC)[C@@H](O)[C@H](C)O2)[C@H](C)[C@@H](O[C@@H]2O[C@H](C)C[C@H](N(C)C)[C@H]2O)[C@](C)(O)C[C@@H](C)C(=O)[C@H](C)[C@@H](O)[C@]1(C)O [ERY, Erythromycin]",IC10 (LOD),[1]; [8],0.04 ng/mL
same,IC20-IC80 (working range),[1]; [8],0.097 to 0.907 ng/mL
same,IC50,[1]; [8],0.31 ng/mL
same,IC10 (LOD),[1]; [9],0.04 ng/mL
same,IC20-IC80 (working range),[1]; [9],0.085 to 0.565 ng/mL
same,IC50,[1]; [9],0.23 ng/mL
same,IC10 (LOD),[1]; [10],0.008 ng/mL
same,IC20-IC80 (working range),[1]; [10],0.037 to 0.400 ng/mL
same,IC50,[1]; [10],0.14 ng/mL
same,IC10 (LOD),[1]; [11],0.011 ng/mL
same,IC20-IC80 (working range),[1]; [11],0.029 to 0.253 ng/mL
same,IC50,[1]; [11],0.098 ng/mL
same,IC10 (LOD),[1]; [12],0.024 ng/mL
same,IC20-IC80 (working range),[1]; [12],0.043 to 0.184 ng/mL
same,IC50,[1]; [12],0.091 ng/mL
same,IC10 (LOD),[1]; [13],0.002 ng/mL
same,IC20-IC80 (working range),[1]; [13],0.008 to 0.119 ng/mL
same,IC50,[1]; [13],0.034 ng/mL
same,IC10 (LOD),[1]; [14],0.006 ng/mL
same,IC20-IC80 (working range),[1]; [14],0.012 to 0.119 ng/mL
same,IC50,[1]; [14],0.040 ng/mL
same,IC10 (LOD),[2]; [15],0.003 ng/mL
same,IC20-IC80 (working range),[2]; [15],0.006 to 0.056 ng/mL
same,IC50,[2]; [15],0.018 ng/mL
same,IC10 (LOD),[2]; [16],0.001 ng/mL
same,IC20-IC80 (working range),[2]; [16],0.003 to 0.057 ng/mL
same,IC50,[2]; [16],0.012 ng/mL
same,CR,[3],100%
same,IC10 (LOD),[4],0.001 ng/mL
same,IC20-IC80 (working range),[4],0.002 to 0.019 ng/mL
same,IC50,[4],0.005 ng/mL
same,CR,[5],100%
same,LOD,[5],ni//0.13 ng/mL
same,IC50,[6],0.20 ng/mL
same,CR,[7],30.1%
